In US7348427B2, “Antipathogenic benzamide compounds” (Genesoft Pharmaceuticals, Inc., priority 2001, dated 2008):

Legend:
S. pneumoniae ATCC 49619 = test: MIC, NCCLS broth microdilution assay; assay type: cell-based, Streptococcus pneumoniae; details: H = S. pneumoniae ATCC 49619
Procedure: (§1) Compounds according to this invention were screened for their in vitro activities against selected species of bacteria and fungi. The minimal inhibition concentration (MIC) of these compounds was determined using the National Committee for Clinical Laboratory Standards (NCCLS) broth microdilution assay in microtiter plates, as set forth in: (1) the guidelines of the National. Committee for Clinical Laboratory Standards (NCCLS) Document M7-A4 (NCCLS, 1997); (2) the guidelines of the National Committee for Clinical Laboratory Standards (NCCLS) Document M11-A4 (NCCLS, 1997); and (3) the guidelines and reference method of the National Committee for Clinical Laboratory Standards (NCCLS) Document M27-T (NCCLS, 1995). For antifungal assays, the method recommended in Murray, P R., 1995 Manual of Clinical Microbiology (ASM Press, Washington, D.C.), was employed.

[1] = tested on: Bacillus cereus (ATCC 11778); test: MIC, NCCLS broth microdilution assay; assay type: cell-based; details: A = B. cereus ATCC 11778
Description: (§2) In vitro biological activity data were collected for a variety of microorganisms, including Bacillus cereus (ATCC 11778), Staphylococcus aureus (ATCC 27660, a methicillin resistant strain (MRSA); ATCC 13709, a methicillin sensitive strain (MSSA)); Streptococcus pneumoniae (ATCC 51422, a penicillin resistant strain (PRSP)), Enterococcus faecium (ATCC 51559, a vancomycin resistant strain (VRE)), and Staphylococcus epidermidis (ATCC 12228). Additionally, antifungal activity data were collected for Candida albicans (ATCC 38247).
as §1

[2] = tested on: Staphylococcus aureus (ATCC 27660, a methicillin resistant strain (MRSA)); test: MIC, NCCLS broth microdilution assay; assay type: cell-based; details: F = S. aureus ATCC 27660
Description: as §2, §1

[3] = tested on: Staphylococcus aureus (ATCC 13709, a methicillin sensitive strain (MSSA)); test: MIC, NCCLS broth microdilution assay; assay type: cell-based; details: E = S. aureus ATCC 13709
Description: as §2, §1

[4] = tested on: Candida albicans (ATCC 38247); test: Antifungal MIC assay; assay type: cell-based; details: B = C. albicans ATCC 38247
Description: as §2, §1

E. faecalis ATCC 29212 = test: MIC, NCCLS broth microdilution assay; assay type: cell-based, Enterococcus faecalis; details: C = E. faecalis ATCC 29212
Procedure: as §1

Compound | Minimum Inhibitory Concentration (MIC) (S. pneumoniae ATCC 49619) | Minimum Inhibitory Concentration (MIC) [1] | Minimum Inhibitory Concentration (MIC) [2] | Minimum Inhibitory Concentration (MIC) [3] | Minimum Inhibitory Concentration (MIC) [4] | Minimum Inhibitory Concentration (MIC) (E. faecalis ATCC 29212)
Cn1cc(NC(=O)c2cc(NC(=O)c3cc(NC(=O)c4ccc(F)cc4F)cn3C)cn2C)cc1C(=O)NCCN1CCC(O)CC1 [Compound B-19] | +++ (+++ = MIC ≦ 4) | +++ (+++ = MIC ≦ 4) | +++ (+++ = MIC ≦ 4) | +++ (+++ = MIC ≦ 4) | >32 µg/mL | +++ (+++ = MIC ≦ 4)
C[C@@H]1CCC[C@H](C)N1CCNC(=O)c1cc(NC(=O)c2cc(NC(=O)c3cc(NC(=O)c4ccc(F)cc4F)cn3C)cn2C)cn1C [Compound B-20] | +++ (+++ = MIC ≦ 4) | +++ (+++ = MIC ≦ 4) | ++ (++ = 4 < MIC < 12) | +++ (+++ = MIC ≦ 4) | >32 µg/mL | + (+ = 12 ≦ MIC ≦ 32)
Cn1cc(NC(=O)c2cc(NC(=O)c3cc(NC(=O)c4ccc(F)cc4F)cn3C)cn2C)cc1C(=O)NCCN [Compound B-21] | ++ (++ = 4 < MIC < 12) | + (+ = 12 ≦ MIC ≦ 32) | ++ (++ = 4 < MIC < 12) | + (+ = 12 ≦ MIC ≦ 32) | + (+ = 12 ≦ MIC ≦ 32) | ++ (++ = 4 < MIC < 12)
Cn1cc(NC(=O)c2cc(NC(=O)c3cc(NC(=O)c4ccc(F)cc4F)cn3C)cn2C)cc1C(=O)NCCNC(=N)N [Compound B-23] | +++ (+++ = MIC ≦ 4) | +++ (+++ = MIC ≦ 4) | +++ (+++ = MIC ≦ 4) | +++ (+++ = MIC ≦ 4) | ++ (++ = 4 < MIC < 12) | +++ (+++ = MIC ≦ 4)
Cn1cc(NC(=O)c2cc(NC(=O)c3cc(NC(=O)c4ccc(F)cc4F)cn3C)cn2C)cc1C(=O)NCCN(CCO)CCO [Compound B-25] | +++ (+++ = MIC ≦ 4) | + (+ = 12 ≦ MIC ≦ 32) | + (+ = 12 ≦ MIC ≦ 32) | + (+ = 12 ≦ MIC ≦ 32) | >32 µg/mL | + (+ = 12 ≦ MIC ≦ 32)
Cn1cc(NC(=O)c2cc(NC(=O)c3cc(NC(=O)c4ccc(F)cc4F)cn3C)cn2C)cc1C(=O)NCCN1CCNCC1 [Compound B-28] | +++ (+++ = MIC ≦ 4) | + (+ = 12 ≦ MIC ≦ 32) | + (+ = 12 ≦ MIC ≦ 32) | + (+ = 12 ≦ MIC ≦ 32) | >32 µg/mL | + (+ = 12 ≦ MIC ≦ 32)
Cn1cc(NC(=O)c2cc(NC(=O)c3cc(NC(=O)c4ccc(F)cc4F)cn3C)cn2C)cc1C(=O)NCCN1CCC(F)CC1 [Compound B-29] | +++ (+++ = MIC ≦ 4) | +++ (+++ = MIC ≦ 4) | +++ (+++ = MIC ≦ 4) | +++ (+++ = MIC ≦ 4) | + (+ = 12 ≦ MIC ≦ 32) | +++ (+++ = MIC ≦ 4)
Cn1cc(NC(=O)c2cc(NC(=O)c3cc(NC(=O)c4ccc(F)cc4F)cn3C)cn2C)cc1C(=O)NCC[N+]1(C)CCOCC1 [Compound B-30] | +++ (+++ = MIC ≦ 4) | +++ (+++ = MIC ≦ 4) | +++ (+++ = MIC ≦ 4) | +++ (+++ = MIC ≦ 4) | + (+ = 12 ≦ MIC ≦ 32) | >32 µg/mL
Cn1cc(NC(=O)c2cc(NC(=O)c3cc(NC(=O)c4ccc(F)cc4)cn3C)cn2C)cc1C(=O)NCCN1CCOCC1 [Compound B-32] | ++ (++ = 4 < MIC < 12) | + (+ = 12 ≦ MIC ≦ 32) | + (+ = 12 ≦ MIC ≦ 32) | ++ (++ = 4 < MIC < 12) | >32 µg/mL | ++ (++ = 4 < MIC < 12)
Cn1cc(NC(=O)c2cc(NC(=O)c3ccc(F)cc3)cn2C)cc1C(=O)NCCN1CCSCC1 [Compound B-33] | +++ (+++ = MIC ≦ 4) | + (+ = 12 ≦ MIC ≦ 32) | + (+ = 12 ≦ MIC ≦ 32) | ++ (++ = 4 < MIC < 12) | >32 µg/mL | ++ (++ = 4 < MIC < 12)
Cn1cc(NC(=O)c2cc(NC(=O)c3cc(NC(=O)c4ccc(F)cc4)cn3C)cn2C)cc1C(=O)NCCN1CCSCC1 [Compound B-34] | +++ (+++ = MIC ≦ 4) | +++ (+++ = MIC ≦ 4) | +++ (+++ = MIC ≦ 4) | +++ (+++ = MIC ≦ 4) | >32 µg/mL | +++ (+++ = MIC ≦ 4)
Cn1cc(NC(=O)c2cc(NC(=O)c3cc(NC(=O)c4cc(NC(=O)c5ccc(F)cc5)cn4C)cn3C)cn2C)cc1C(=O)NCCN1CCSCC1 [Compound B-35] | +++ (+++ = MIC ≦ 4) | +++ (+++ = MIC ≦ 4) | +++ (+++ = MIC ≦ 4) | +++ (+++ = MIC ≦ 4) | >32 µg/mL | +++ (+++ = MIC ≦ 4)
Cn1cc(NC(=O)c2cc(NC(=O)c3cc(NC(=O)c4cc(NC(=O)c5ccc(F)cc5)cn4C)cn3C)cn2C)cc1C(=O)NCCN1CCOCC1 [Compound B-37] | +++ (+++ = MIC ≦ 4) | +++ (+++ = MIC ≦ 4) | >32 µg/mL | +++ (+++ = MIC ≦ 4) | >32 µg/mL | +++ (+++ = MIC ≦ 4)
Cn1cc(NC(=O)c2cc(NC(=O)c3cc(NC(=O)c4ccccc4F)cn3C)cn2C)cc1C(=O)NCCN1CCOCC1 [Compound B-39] | +++ (+++ = MIC ≦ 4) | +++ (+++ = MIC ≦ 4) | ++ (++ = 4 < MIC < 12) | +++ (+++ = MIC ≦ 4) | >32 µg/mL | +++ (+++ = MIC ≦ 4)
Cn1cc(NC(=O)c2cc(NC(=O)c3ccccc3F)cn2C)cc1C(=O)NCCN1CCSCC1 [Compound B-40] | +++ (+++ = MIC ≦ 4) | ++ (++ = 4 < MIC < 12) | ++ (++ = 4 < MIC < 12) | ++ (++ = 4 < MIC < 12) | >32 µg/mL | +++ (+++ = MIC ≦ 4)
Cn1cc(NC(=O)c2cc(NC(=O)c3cc(NC(=O)c4cc(NC(=O)c5ccccc5F)cn4C)cn3C)cn2C)cc1C(=O)NCCN1CCSCC1 [Compound B-42] | +++ (+++ = MIC ≦ 4) | +++ (+++ = MIC ≦ 4) | +++ (+++ = MIC ≦ 4) | +++ (+++ = MIC ≦ 4) | >32 µg/mL | +++ (+++ = MIC ≦ 4)
Cn1cc(NC(=O)c2cc(NC(=O)c3ccccc3F)cn2C)cc1C(=O)NCCN1CCOCC1 [Compound B-43] | + (+ = 12 ≦ MIC ≦ 32) | + (+ = 12 ≦ MIC ≦ 32) | + (+ = 12 ≦ MIC ≦ 32) | + (+ = 12 ≦ MIC ≦ 32) | >32 µg/mL | + (+ = 12 ≦ MIC ≦ 32)
Cn1cc(NC(=O)c2cc(NC(=O)c3cc(NC(=O)c4cc(NC(=O)c5ccccc5F)cn4C)cn3C)cn2C)cc1C(=O)NCCN1CCOCC1 [Compound B-44] | +++ (+++ = MIC ≦ 4) | +++ (+++ = MIC ≦ 4) | ++ (++ = 4 < MIC < 12) | +++ (+++ = MIC ≦ 4) | >32 µg/mL | ++ (++ = 4 < MIC < 12)
